The results in this text go back to patent US12486246B2, “Replication protein A (RPA)-DNA interaction inhibitors” (THE TRUSTEES OF INDIANA UNIVERSITY, priority 2019, dated 2025).

Test [1] deals with sonicated salmon sperm DNA. Description: Fluorescent intercalator displacement (FID) assay, SYBR-Green. It counts as binding. The settings on record: 25 mM MOPS pH 6.5. The essentials: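 Displacement of SYBR-Green from sonicated salmon sperm DNA (8.29 ng/μL) in 25 mM MOPS pH 6.5 with compound at indicated concentrations; doxorubicin positive control. Fluorescence (Ex 485/Em 528 nm) read within 5 min of incubation.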

The target in test [2] is T1, RPA-AB construct (RPA70 AB domain) (Homo sapiens, UniProt P27694).
T1 construct: The DBD-A/B construct was expressed as a His6-RPA181-422 fusion protein; His6 (N); made in house; host or cells: E. coli BL21 (DE3)
T1 sequence (P27694 181-422): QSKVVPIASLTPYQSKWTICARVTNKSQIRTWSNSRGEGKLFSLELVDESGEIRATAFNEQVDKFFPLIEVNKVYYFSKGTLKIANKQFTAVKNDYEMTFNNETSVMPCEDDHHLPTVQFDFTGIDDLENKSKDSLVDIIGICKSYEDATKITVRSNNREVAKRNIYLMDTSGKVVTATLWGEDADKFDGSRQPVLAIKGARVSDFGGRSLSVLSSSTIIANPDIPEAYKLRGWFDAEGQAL
Description: Differential scanning fluorimetry (DSF). The class given is binding. As for the experimental part:
In order to probe the potential role of DNA intercalation as a mechanism for RPA inhibition, compounds 19, 23, 26, 27, 43 and 45 were analyzed using FID assay along with doxorubicin (Dox) as a positive control. […] In addition, direct binding of 9 derivatives to the target protein was assessed using a differential scan fluorimetry (DSF) assay. This assay assesses the melting profile of a protein at increasing temperatures via fluorescent dye binding. The direct interaction of a small molecule to the target protein can either increase or decrease the melting temperature (Tm) of the target depending on the specific protein and their interactions. […] Heparin sulfate, a known RPA interacting molecule often used in the purification of the protein was used as a control. […] (data not shown). […] (FIG. 1B).
The interaction of compound 43 with RPA-AB constructs was performed by differential scanning fluorimetry using GloMelt™ Dye (Biotum). […] Reactions were run in an ABI 7500 real time PCR machine with temperature increasing from 25° C. to 99° C. at a 2% ramp (˜40 minutes) and fluorescence of the reporter was measured on the SYBR® Green setting. […] Data was uploaded to TSA-CRAFT software and Tm calculated as described by Lee et al. Heparin was employed as a positive control of binding to the AB-box of RPA.

In test [3] the test system is H460 NSCLC cells. The experiment in a line: Cell survival, CCK-8 metabolic assay, single agent. The class given is cell-based. As for the experimental part: Cell survival was determined by CCK-8 viability assay and/or clonogenic survival assay in 96 well plates or 24 well plates, respectively and combination index (CI) analysis of drug-drug interactions determined by Chou-Talalay analysis as we have previously described. • 1) CCK-8 metabolic assay: Cells were plated (2500 cells/well) in 96-well plate and allowed to grow for at least 18 hours in at 37° C. in the presence of 5% CO2 before treatment with inhibitor for 48 hours. CCK-8 solution (Dojindo) was added to 10% of the total media volume and after 1-4 hours of incubation absorbance at 450 nm was determined using BioTek® Synergy™ H1 hybrid multi-mode microplate reader • 2) Clonogenic survival assay: Cells were plated in a 24 well (20,000 cells/well) plate, incubated for at least 18 hours and then treated with inhibitor. […] Images of the stained colonies were captured with a Fuji LAS-3000 CCD system then counted using OpenCFU software. Viability is determined as a percent of vehicle controls and plotted versus drug concentration. • 3) Assessment of synergy via combination index (CI): In the combination index studies, cells (H460 or SKGT4) were treated with RPA inhibitor and Pt/etoposide/bleomycin/taxol/DDR inhibitor alone as well as the combination of both—the inhibitor and the DNA damaging chemotherapeutic agent/DDR inhibitor. […]
Background: Formazan colour is commonly taken as a measure of viable cells.

Test [4] concerns H460 NSCLC cells. Description: Combination index (Chou-Talalay), CCK-8 assay. The class given is cell-based. Here is the method: (§1) Cell survival was determined by CCK-8 viability assay and/or clonogenic survival assay in 96 well plates or 24 well plates, respectively and combination index (CI) analysis of drug-drug interactions determined by Chou-Talalay analysis as we have previously described. • 1) CCK-8 metabolic assay: Cells were plated (2500 cells/well) in 96-well plate and allowed to grow for at least 18 hours in at 37° C. in the presence of 5% CO2 before treatment with inhibitor for 48 hours. CCK-8 solution (Dojindo) was added to 10% of the total media volume and after 1-4 hours of incubation absorbance at 450 nm was determined using BioTek® Synergy™ H1 hybrid multi-mode microplate reader • 2) Clonogenic survival assay: Cells were plated in a 24 well (20,000 cells/well) plate, incubated for at least 18 hours and then treated with inhibitor. After 48 hours of treatment, the cells are re-plated in 10 cm dishes (500 cells/dish) and incubated for 8-10 days to allow colony formation. Plates are washed with PBS, fixed with glutaraldehyde and stained with crystal violet. Images of the stained colonies were captured with a Fuji LAS-3000 CCD system then counted using OpenCFU software. Viability is determined as a percent of vehicle controls and plotted versus drug concentration. • 3) Assessment of synergy via combination index (CI): In the combination index studies, cells (H460 or SKGT4) were treated with RPA inhibitor and Pt/etoposide/bleomycin/taxol/DDR inhibitor alone as well as the combination of both—the inhibitor and the DNA damaging chemotherapeutic agent/DDR inhibitor. The range of treatment was dependent on the IC50 of each inhibitor/drug. If the IC50 was X, then the cells were treated at a range of 0.04× to 5× concentration in a CCK-8 metabolic assay. The kill curves from both the single agent treatments as well as the combination treatment were used in a Chou-Talalay based method to determine the combination index (CI) at different fractions of cells affected.^40 A CI>1.0 indicates antagonism between the two agents, while a CI<1.0 indicates synergy.
(§2) Inhibiting RPA can act synergistically with DNA damaging therapeutics including cisplatin and etoposide (FIG. 4C). In these studies, we used the Chou-Talalay method, which provides a combination index (CI) that quantifies synergistic activity for each drug combination. […] The synergistic activity of compounds described herein with DNA damaging agents may be explained by RPA's role in the DNA damage response and signaling.

Another test concerns SKGT-4 EAC cells. Description: Combination index (Chou-Talalay), CCK-8 assay. It counts as cell-based. Here is the method: as §1, §2
Another test deals with H460 cells. Description: Caspase 3/7 activation (CellEvent Caspase-3/7 Green). It counts as cell-based. The note with it: 24 hours treatment. Here is the method: Apoptosis induction was determined by activation of Caspase 3 and 7 using the CellEvent™ Caspase-3/7 Green Detection Reagent (Invitrogen). H460 cells were plated at […] in black 96 well plates with clear bottoms (Costar) and incubated for 24 hours prior to treatments. Cells were treated with the indicated concentration of compound 43 or cisplatin for 24 hours. The vehicle (DMSO) concentration was held constant at 1% for compound 43 treatments. For caspase 3/7 detection, media was removed and replaced with PBS containing 5% FBS and 2 μM CellEvent™ Caspase-3/7 Green Detection Reagent. Cells were incubated at 37° C./5% CO2 for 1 hour and fluorescence intensity was measured in a BioTek Synergy H1 plate reader (excitation/emission 485/528). Images were captured with an Evos FL2 Auto microscope (Invitrogen) using a 10× objective.

`CCOc1ccc2cc(C3CC(c4ccc(I)cc4)=NN3C(=O)CCCC(=O)NCCCN3CCOCC3)c(Cl)nc2c1` (centres unmarked) [Compound 43, 5-(5-(2-Chloro-7-ethoxyquinolin-3-yl)-3-(4-iodophenyl)-4,5-dihydro-1H-pyrazol-1-yl)-N-(3-morpholinopropyl)-5-oxopentanamide]: the “DNA binding activity (displacement of SYBR-Green intercalator)” value in test [1] is recorded as “No significant DNA binding activity”. The “increase in Tm” value in test [2] turned out to be 0.6 °C. The “cellular anticancer activity compared to compound 9” value with H460 NSCLC cells [3] is reported as “increase in cellular anticancer activity”. For the same compound, the “synergy (combination index) with bleomycin” value with H460 NSCLC cells [4] was “stronger synergy”. The “synergy (combination index) with DNA damaging therapeutics cisplatin and etoposide” value in the test with H460 NSCLC cells [4] (CI <1.0 = synergy) is “even greater synergy than either of its predecessors”. Further, in the test on SKGT-4 EAC cells (EAC cell model, BMN637, NU7441, VE821, MK1775), the “synergy with PARP, DNA-PK, ATR and WEE1 inhibitors” value is on record as “effectively synergizes”. The “combination interaction with taxol” value in the test with SKGT-4 EAC cells (SKGT-4 EAC cells, Chou-Talalay) is listed as “additive interaction”. In the test on H460 cells, the “caspase 3 and 7 activation” value was “potently activates caspase 3 and 7”.
